Literature values as cited in patent US8097423B2, “MN/CA IX and breast cancer therapy” (Institute of Virology, priority 2008, dated 2012).

Key:
T2-4 N0-1 breast cancer = conditions: breast cancer patients, primary systemic treatment, four cycles before surgery; no significant difference between arms
[1] = Phase I and II clinical trials
[2] = weak basic drug

Compound: COc1cccc2c1C(=O)c1c(O)c3c(c(O)c1C2=O)C[C@@](O)(C(=O)CO)C[C@@H]3O[C@H]1C[C@H](N)[C@@H](O)[C@H](C)O1 [epirubicin]
- treatment responses (T2-4 N0-1 breast cancer): 76%

Compound: Rencarex®: an MN-specific drug
- tolerability / drug-related side effects [1]: well-tolerated, with no serious drug-related side effects

Compound: CC/C(=C(\c1ccccc1)c1ccc(OCCN(C)C)cc1)c1ccccc1 [Tamoxifen, tamoxifen]
- pKa [2]: 8.8
